Drawing on ChEMBL document CHEMBL1159120, “2,4-Diamino-5-methyl-6-substituted arylthio-furo[2,3-d]pyrimidines as novel classical and nonclassical antifolates as potential dual thymidylate synthase and dihydrofolate reductase inhibitors” (Bioorg Med Chem, 2010), this text covers IC50 and inhibition for 15 compounds.

In one assay the target is Thymidylate synthase (Homo sapiens, UniProt P04818).
Assay [1] addresses T1, Dihydrofolate reductase (Pneumocystis carinii, UniProt P16184).
T1 sequence (P16184 whole entry): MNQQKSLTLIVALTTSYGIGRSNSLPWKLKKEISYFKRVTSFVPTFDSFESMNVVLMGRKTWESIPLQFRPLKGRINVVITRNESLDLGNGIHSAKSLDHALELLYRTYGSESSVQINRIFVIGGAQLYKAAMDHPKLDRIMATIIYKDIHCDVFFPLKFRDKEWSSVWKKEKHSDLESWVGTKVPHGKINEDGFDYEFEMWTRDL
Description: Inhibition of Pneumocystis carinii DHFR at 37 degC by spectrophotometry

Assay [2] addresses T2, Dihydrofolate reductase (Rattus norvegicus, UniProt Q920D2).
T2 sequence (Q920D2 whole entry): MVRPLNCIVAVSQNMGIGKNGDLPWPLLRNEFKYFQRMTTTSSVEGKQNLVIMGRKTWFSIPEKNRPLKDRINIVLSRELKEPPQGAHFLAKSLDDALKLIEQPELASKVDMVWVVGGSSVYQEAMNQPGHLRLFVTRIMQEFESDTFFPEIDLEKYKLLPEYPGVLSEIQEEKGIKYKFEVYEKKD
Description: Inhibition of rat liver DHFR at 37 degC by spectrophotometry

Assay [3] deals with T3, Bifunctional dihydrofolate reductase-thymidylate synthase (Toxoplasma gondii, UniProt Q07422).
T3 sequence (Q07422 whole entry): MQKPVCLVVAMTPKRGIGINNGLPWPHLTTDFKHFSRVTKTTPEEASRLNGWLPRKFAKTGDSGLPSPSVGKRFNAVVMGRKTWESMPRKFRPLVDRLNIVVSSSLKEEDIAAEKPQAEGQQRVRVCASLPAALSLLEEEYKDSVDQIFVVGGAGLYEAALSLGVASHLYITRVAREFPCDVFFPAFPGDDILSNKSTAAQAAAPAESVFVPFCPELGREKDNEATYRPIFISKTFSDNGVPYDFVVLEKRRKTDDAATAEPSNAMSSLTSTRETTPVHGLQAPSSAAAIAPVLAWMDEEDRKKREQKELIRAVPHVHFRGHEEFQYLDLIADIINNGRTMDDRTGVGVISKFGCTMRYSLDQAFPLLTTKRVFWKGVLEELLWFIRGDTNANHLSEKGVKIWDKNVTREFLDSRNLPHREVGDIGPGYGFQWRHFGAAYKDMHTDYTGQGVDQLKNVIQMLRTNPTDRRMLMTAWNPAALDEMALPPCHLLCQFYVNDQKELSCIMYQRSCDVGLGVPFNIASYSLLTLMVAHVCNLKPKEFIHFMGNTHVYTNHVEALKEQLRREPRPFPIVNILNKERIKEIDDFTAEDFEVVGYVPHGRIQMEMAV
Description: Inhibition of Toxoplasma gondii DHFR at 37 degC by spectrophotometry

Assay [4] concerns the target T4, Dihydrofolate reductase (Pneumocystis carinii) (UniProt P16184).
T4 sequence (whole entry): T1 sequence (P16184 whole entry)
Nature of the assay: Inhibition of Pneumocystis carinii DHFR at 20 uM under 37 degC by spectrophotometry.

Assay [5] addresses T5, Dihydrofolate reductase (Rattus norvegicus) (UniProt Q920D2).
T5 sequence (whole entry): T2 sequence (Q920D2 whole entry)
As to the kind of experiment: Inhibition of rat liver DHFR at 196 uM under 37 degC by spectrophotometry.

The target of assay [6] is T6, Dihydrofolate reductase (Mycobacterium avium) (UniProt O30463).
T6 sequence (whole entry): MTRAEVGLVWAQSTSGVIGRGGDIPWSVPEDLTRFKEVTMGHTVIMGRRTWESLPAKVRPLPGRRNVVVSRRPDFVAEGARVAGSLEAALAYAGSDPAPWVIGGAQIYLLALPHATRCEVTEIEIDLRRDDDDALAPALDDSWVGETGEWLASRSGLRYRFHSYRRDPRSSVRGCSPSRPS
The conditions noted are these: 196 uM.

Assay [7] addresses T7, Dihydrofolate reductase (Mycobacterium avium, UniProt O30463).
T7 sequence (O30463 whole entry): T6 sequence (whole entry)
Description: Inhibition of Mycobacterium avium DHFR at 37 degC by spectrophotometry

In assay [8] the target is T6, Dihydrofolate reductase (Mycobacterium avium). As to the kind of experiment: Inhibition of Mycobacterium avium DHFR at 31 uM under 37 degC by spectrophotometry.
The target in assay [9] is T4, Dihydrofolate reductase (Pneumocystis carinii). As to the kind of experiment: Inhibition of Pneumocystis carinii DHFR at 31 uM under 37 degC by spectrophotometry.
Assay [10] concerns the target T3, Bifunctional dihydrofolate reductase-thymidylate synthase. The source holds these as a separate data set.
Assay [11] concerns the target T8, Dihydrofolate reductase (Escherichia coli, UniProt P0ABQ4).
T8 sequence (P0ABQ4 whole entry): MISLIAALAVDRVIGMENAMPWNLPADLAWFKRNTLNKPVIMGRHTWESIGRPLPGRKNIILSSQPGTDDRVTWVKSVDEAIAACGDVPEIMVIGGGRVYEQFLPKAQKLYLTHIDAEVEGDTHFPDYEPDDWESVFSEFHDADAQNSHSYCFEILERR
Description: Inhibition of Escherichia coli DHFR at 30 degC under pH 7.4 by spectrophotometry

In assay [12] the target is T3, Bifunctional dihydrofolate reductase-thymidylate synthase. The source holds these as a separate data set.
Description: Inhibition of Toxoplasma gondii DHFR at 30 degC under pH 7.4 by spectrophotometry
Assay [13] concerns the target T9, Dihydrofolate reductase (Homo sapiens, UniProt P00374).
T9 sequence (P00374 whole entry): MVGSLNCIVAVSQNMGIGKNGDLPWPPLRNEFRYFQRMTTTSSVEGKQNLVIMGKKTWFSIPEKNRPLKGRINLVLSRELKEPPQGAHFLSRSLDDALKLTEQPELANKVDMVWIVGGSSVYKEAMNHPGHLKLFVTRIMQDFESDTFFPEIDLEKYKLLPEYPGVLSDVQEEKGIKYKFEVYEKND
Description: Inhibition of human DHFR at 30 degC under pH 7.4 by spectrophotometry

pIC50: −log10 of the molar value.

Thymidylate synthase, sequence (P04818 whole entry): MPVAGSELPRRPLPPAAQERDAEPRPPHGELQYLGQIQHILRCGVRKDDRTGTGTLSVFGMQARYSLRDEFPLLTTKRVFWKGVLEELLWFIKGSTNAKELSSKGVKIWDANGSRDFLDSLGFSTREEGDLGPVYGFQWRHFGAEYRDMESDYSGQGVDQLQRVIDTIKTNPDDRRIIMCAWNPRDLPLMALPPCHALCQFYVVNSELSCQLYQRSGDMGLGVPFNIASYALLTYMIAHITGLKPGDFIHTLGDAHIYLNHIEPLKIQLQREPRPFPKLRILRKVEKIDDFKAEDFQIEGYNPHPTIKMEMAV

As usually defined, the pIC50 is the negative decadic logarithm of the IC50, by convention in mol/L. The low end stands for a large IC50, the high end for a small IC50. Take `CN(Cc1coc2nc(N)nc(N)c12)c1ccc(C(=O)N[C@@H](CCC(=O)O)C(=O)O)cc1` [FURO[2,3D]PYRIMIDINE ANTIFOLATE]: on Thymidylate synthase, the pIC50 is < 3.70.

As for `Cc1c(Sc2c(Cl)cccc2Cl)oc2nc(N)nc(N)c12`, the values for the pIC50 on Dihydrofolate reductase [1] and against Dihydrofolate reductase [2] were 4.22 and 4.84, respectively.

One may read the inhibition as the share of the control response that was lost under treatment. Read a low inhibition as little suppression. Turning to `Cc1cccc(C)c1Sc1oc2nc(N)nc(N)c2c1C`, the pIC50 on Dihydrofolate reductase [1] is < 4.70; in [3], 4.71; against Dihydrofolate reductase [2], < 3.71. The values for the inhibition in [4], in assay [5] and in assay [6] were 27%, 41% and 20%, respectively.

Regarding `Cc1c(Sc2ccc3ccccc3c2)oc2nc(N)nc(N)c12`, the negative logarithm of the IC50 (pIC50) (against Dihydrofolate reductase [1]; in assay [3]; against Dihydrofolate reductase [2]) was < 4.92 in each case.

Consider `COc1ccc(Sc2oc3nc(N)nc(N)c3c2C)cc1`, for which the pIC50 is 4.46 against Dihydrofolate reductase [1], 4.21 at Dihydrofolate reductase [2] and 4.59 on Dihydrofolate reductase [7].

With `Cc1c(Sc2cccc3ccccc23)oc2nc(N)nc(N)c12`, the negative logarithm of the IC50 (pIC50) against Dihydrofolate reductase [1] is 5.07; in [3] it was < 4.08; on Dihydrofolate reductase [2], < 4.08.

Regarding `Cc1c(Sc2c(F)c(F)c(C(F)(F)F)c(F)c2F)oc2nc(N)nc(N)c12`, the inhibition in [8] was 8%; in assay [9] it was 39%. In addition, the negative-log IC50 (pIC50) against Dihydrofolate reductase [1] was < 4.51; against Dihydrofolate reductase [2] it was 4.41.

In the case of `COc1ccc(Sc2oc3nc(N)nc(N)c3c2C)cc1OC`, the pIC50 is 4.44 against Dihydrofolate reductase [1], 4.18 at Dihydrofolate reductase [2] and 4.79 against Dihydrofolate reductase [7].

As to `COc1ccccc1Sc1oc2nc(N)nc(N)c2c1C`, the pIC50 was 4.69 at Dihydrofolate reductase [1], 4.25 on Dihydrofolate reductase [2] and 4.62 at Dihydrofolate reductase [7].

For the compound `Cc1c(Sc2ccc(C(=O)N[C@@H](CCC(=O)O)C(=O)O)cc2)oc2nc(N)nc(N)c12`, the pIC50 was 7.11 on Dihydrofolate reductase [1]; 4.57 in assay [10]; 4.92 in assay [3]; 7.70 at Dihydrofolate reductase [11]; 4.69 at Dihydrofolate reductase [2]; 8.01 on Dihydrofolate reductase [7]. Besides, the pIC50 was 5.66 in assay [12] and 5.40 against Dihydrofolate reductase [13].

In the case of `Nc1nc(N)c2c(CNc3ccc(C(=O)N[C@@H](CCC(=O)O)C(=O)O)cc3)coc2n1`, the negative logarithm of the IC50 (pIC50) at Thymidylate synthase was < 3.70.

In the case of `Nc1nc(N)c2c(CCc3ccc(C(=O)N[C@@H](CCC(=O)O)C(=O)O)cc3)coc2n1`, the pIC50 against Thymidylate synthase was < 3.70.

Regarding `COc1cccc(Sc2oc3nc(N)nc(N)c3c2C)c1`, the negative-log IC50 (pIC50) was 4.60 on Dihydrofolate reductase [1], 4.29 against Dihydrofolate reductase [2] and 4.55 against Dihydrofolate reductase [7].

`COc1ccc(OC)c(Sc2oc3nc(N)nc(N)c3c2C)c1`: the pIC50 on Dihydrofolate reductase [1] was 4.62; at Dihydrofolate reductase [2], 4.37; on Dihydrofolate reductase [7], 4.21.

`Cc1cccc(C(C)C)c1Sc1oc2nc(N)nc(N)c2c1C` had a pIC50 against Dihydrofolate reductase [1] of 4.44.
